One experiment has as its system human neutrophils. Put plainly: Citrullinated histone H3 (CitH3) NET induction in PMA-stimulated human neutrophils. Format: cell-based. The conditions noted are these: for NETosis (anti-CitH3 signal), comparison of class I/IIb and class IIb selective inhibitors: drugs 10, 2, 0.4, 0.08 μM 1 hour, then 1 μM PMA 3 hours, FIG. 5F. Here is the method: FIGS. 1A-H. Class I/II HDACs drive NET formation • (A and B) Freshly purified human (A) or mouse (B) neutrophils were treated with the indicated HDAC inhibitors at different doses (10, 2, 0.4, 0.08 μM), or with GSK484 (10 μM), for 1 h and then stimulated with 1 μM PMA for 3 h. Cells were fixed and stained with anti-citrullinated histone H3 (CitH3) antibody. NETosis induction was measured as the level of anti-CitH3 fluorescent signal. PMA alone represents 100% of NET induction. “-”: Cells treated with the highest dose of the indicated drug but not activated with PMA. • (C and D) Human neutrophils were treated, or not, with ricolinostat or GSK484 and then stimulated with 1 μM PMA. NETosis induction was measured as area of nuclei stained with DAPI. (C) 3D reconstruction of nuclei in each treatment (grid size 7.8 μm). (D) Quantification of DAPI signal from multiple fields of view (D) (n=9 for unstimulated, not pretreated with any drug [NT] and ricolinostat, n=7 for GSK484). • (E and F) Human neutrophils were treated as in (C-D), and immunoblot analysis of the indicated proteins was performed. Relative quantification of band intensity was analyzed with ImageJ software (F). White violins plots depict the quantification of histone H3 acetylation; red violin plots depict the quantification of histone H3 citrullination. Immunoblot in E is representative of four independent experiments. Gasdermin D NT, gasdermin D N terminal; pMLKL, phospho-MLKL. • (G) Human (left) or murine (right) neutrophils were treated, or not, with ricolinostat (10 μM) and then stimulated with 1 μM PMA for 3 h. ROS production was measured by luminescence with luminol-HRP. Histograms represent the total amount of ROS produced overtime. • (H) Murine neutrophils were treated, or not, with ricolinostat (10 μM) and then stimulated with fluorescent E. coli at the indicated multiplicity of infection (MOI) for 1 h. The histogram represents the percentage of neutrophils positive for E. coli staining. Graphs show mean±SEM. Statistics were calculated using one-way ANOVA (A, B, D) and two-way ANOVA (F, G, H) (*p<0.05; **p<0.01; ****p<0.0001. n.s., not significant). Statistics refers to the comparison with neutrophils stimulated with PMA alone (A, B). Gray stars represent comparison of all experimental groups with the unstimulated control, and black stars represent comparison between drug-treated groups and cells treated with PMA only (NT) (D). See also FIGS. 5A-J.
FIGS. 5A-J. Class I/II HDACs drive NET formation. • A) Quantification of extracellular DNA released by neutrophils treated, or not, with 1 μM GSK484 for 1 h and then stimulated with 1 μM PMA for 4 hours. Unstimulated, neutrophils not treated with drugs were used as a control. • B) Freshly purified human neutrophils were treated with the indicated HDAC inhibitors at different doses (0.08, 0.4, 2 and 10 μM) for 1 hour. Extracellular DNA release was assessed in the supernatant 3 hours after PMA stimulation. The dotted line represents the amount of DNA released from neutrophils treated with PMA alone. “-”: cells treated with the highest dose of the indicated drug but not activated with PMA. • C) Freshly purified human neutrophils were stimulated for 1 h, 3 h or 5 h. Cells were fixed and stained with an anti-CitH3 antibody. NETosis induction was measured as level of anti-CitH3 fluorescent signal. 5h-PMA treatment represents 100% NET induction. • D) Representative images of freshly isolated human neutrophils treated or not with 10 μM of the indicated drugs and stimulated with 1 μM PMA for 3 hours. Cells were fixed and then stained for CitH3 (red) and nuclei (blue). Scale bar=100 μm. • E) Murine neutrophils were treated with ricolinostat or GSK484 and then stimulated with […] for 3 hours. NET induction was measured as in (C). […]

A further experiment deals with mouse neutrophils. Put plainly: Citrullinated histone H3 (CitH3) NET induction in PMA-stimulated mouse neutrophils. Type of experiment: cell-based. Here is the method: FIGS. 1A-H. Class I/II HDACs drive NET formation • (A and B) Freshly purified human (A) or mouse (B) neutrophils were treated with the indicated HDAC inhibitors at different doses (10, 2, 0.4, 0.08 μM), or with GSK484 (10 μM), for 1 h and then stimulated with 1 μM PMA for 3 h. Cells were fixed and stained with anti-citrullinated histone H3 (CitH3) antibody. NETosis induction was measured as the level of anti-CitH3 fluorescent signal. PMA alone represents 100% of NET induction. “-”: Cells treated with the highest dose of the indicated drug but not activated with PMA. • (C and D) Human neutrophils were treated, or not, with ricolinostat or GSK484 and then stimulated with 1 μM PMA. NETosis induction was measured as area of nuclei stained with DAPI. (C) 3D reconstruction of nuclei in each treatment (grid size 7.8 μm). (D) Quantification of DAPI signal from multiple fields of view (D) (n=9 for unstimulated, not pretreated with any drug [NT] and ricolinostat, n=7 for GSK484). • (E and F) Human neutrophils were treated as in (C-D), and immunoblot analysis of the indicated proteins was performed. Relative quantification of band intensity was analyzed with ImageJ software (F). White violins plots depict the quantification of histone H3 acetylation; red violin plots depict the quantification of histone H3 citrullination. Immunoblot in E is representative of four independent experiments. Gasdermin D NT, gasdermin D N terminal; pMLKL, phospho-MLKL. • (G) Human (left) or murine (right) neutrophils were treated, or not, with ricolinostat (10 μM) and then stimulated with 1 μM PMA for 3 h. ROS production was measured by luminescence with luminol-HRP. Histograms represent the total amount of ROS produced overtime. • (H) Murine neutrophils were treated, or not, with ricolinostat (10 μM) and then stimulated with fluorescent E. coli at the indicated multiplicity of infection (MOI) for 1 h. The histogram represents the percentage of neutrophils positive for E. coli staining. Graphs show mean±SEM. Statistics were calculated using one-way ANOVA (A, B, D) and two-way ANOVA (F, G, H) (*p<0.05; **p<0.01; ****p<0.0001. n.s., not significant). Statistics refers to the comparison with neutrophils stimulated with PMA alone (A, B). […]
FIGS. 5A-J. Class I/II HDACs drive NET formation. • A) Quantification of extracellular DNA released by neutrophils treated, or not, with 1 μM GSK484 for 1 h and then stimulated with 1 μM PMA for 4 hours. […] Extracellular DNA release was assessed in the supernatant 3 hours after PMA stimulation. […] NETosis induction was measured as level of anti-CitH3 fluorescent signal. […] NET induction was measured as in (C). […]

Molecules are shown by their SMILES.

Turning to `CCCCN(Cc1ccc(C(=O)NO)cc1)C(=O)Nc1ccccc1` [nexturastat], the “NETosis (anti-CitH3 signal), comparison of class I/IIb and class IIb selective inhibitors” value in the experiment on human neutrophils is given as “selective class IIb targeting did not”.
Turning to `O=C(CCCCCCC(=O)Nc1ccc([C@H]2O[C@@H](CSc3nc(-c4ccccc4)c(-c4ccccc4)o3)C[C@@H](c3ccc(CO)cc3)O2)cc1)NO` [tubacin], the “NETosis (anti-CitH3 signal), comparison of class I/IIb and class IIb selective inhibitors” value in the experiment with human neutrophils is given as “class I/IIb HDAC inhibition prevented NETosis”.
On to `O=C(CCCCCCNC(=O)c1cnc(N(c2ccccc2)c2ccccc2Cl)nc1)NO` [citarinostat], for which the “NET formation (level of CitH3), two independent donors” value with human neutrophils (10, 2, 0.4, 0.08 μM for 1 h, then 1 μM PMA, FIGS. 5H, 5I) was “inhibited NET formation to a comparable extent”. For the same compound, the “NET formation (level of CitH3)” value with mouse neutrophils (murine neutrophils, PMA, FIG. 5J) is given as “inhibited NET formation to a comparable extent”.
For `CN1CCc2c(c3ccccc3n2Cc2ccc(C(=O)NO)cc2)C1` [tubastatin A], in the experiment with human neutrophils, the “NETosis (anti-CitH3 signal), comparison of class I/IIb and class IIb selective inhibitors” value is recorded as “selective class IIb targeting did not”.
Take `Nc1ccccc1NC(=O)c1ccc(CNC(=O)OCc2cccnc2)cc1` [entinostat]: in the experiment on human neutrophils (drugs 10, 2, 0.4, 0.08 μM or GSK484 10 μM for 1 h, then 1 μM PMA 3 h, FIGS. 1A and 5D), the “NET induction, measured as CitH3 staining” value is “prevented NET release in a dose-dependent manner with an efficacy comparable with GSK484”. For the same compound, the “release of CitH3 (NET induction)” value with mouse neutrophils (drugs 10, 2, 0.4, 0.08 μM for 1 h, then 1 μM PMA 3 h, FIG. 1B) was “no effect”.

Source of the values: patent US20240366594A1, “Small Molecule Inhibitors of Formation of Neutrophil-Derived Extracellular Traps (NETosis) and Uses Thereof” (The Brigham and Women's Hospital, Inc., priority 2021, published 2024).
